For data set [1], the system named is main artery (arterial endothelium). Kind of data set: analysis for fatty streak in the main artery of rabbits. Format: in vivo, New Zealand White rabbits. The note with it: for Fatty streak (proportion of stained region to total arterial area): 1% cholesterol diet plus 0.1% compound (Lovastatin 1 mg/kg), Control 35 ± 14; for layer of macrophage-lipid complex on the arterial endothelium: FIGS. 1B and 1C, control: thick layer. The protocol:
(§1) 30 three-month-old male New Zealand White rabbits (Yeonam Horticulture and Animal Husbandry College, Korea), each weighing about 2.5 to 2.6 kg, were raised under a condition of temperature 20+2° C., relative humidity 55±5%, and photoperiod 12L/12D. The rabbits were divided into 5 groups and 5 groups of rabbits were fed with 5 different diets, i.e., RC4 diet (Oriental Yeast Co., Japan) containing 1% cholesterol (Control group, 1); 1% cholesterol plus 1 mg/kg Lovastatin® (Merck, U.S.A.) (Lovastatin® group, 2); 1% cholesterol plus 0.1% tannin (3); 1% cholesterol plus 0.1% gallic acid (4); and 1% cholesterol plus 0.1% ellagic acid (5), respectively. RC4 diet comprises 7.6% moisture, 22.8% crude protein, 2.8% crude fat, 8.8% crude ash, 14.4% crude cellulose and 43.6% soluble nitrogen-free substances. Tannin, gallic acid and ellagic acid were purchased from Sigma Chemical Co. (St. Louis, Mo.).
(§2) The rabbits were fed for 6 weeks while being allowed free access to the diets and water.
(Step 3) Analysis for fatty streak in the main artery
The chest of each of the rabbits sacrificed in Step 2 was incised. The downward portion of the main artery from the site 1 cm above the aortic valve was cut out in a length of about 5 cm and the fat surrounding the main artery was removed. The main artery was incised in the middle along the longitudinal axis and pinned to a dish. The moist artery was photographed and, then, the staining of fatty streaks was carried out in accordance with the method of Esper, E., et al. (J. Lab. Clin. Med., 121, 103-110 (1993)) as follows.
A part of the incised main artery was washed three times with anhydrous propylene glycol for 2 min. and stained for 30 min. with a saturated solution of Oil Red O (ORO, Sigma Co.) dissolved in propylene glycol. Thereafter, the artery was washed twice with 85% propylene glycol for 3 min. to remove remaining staining solution and, then washed with physiological saline. The artery was photographed and the photograph was traced. The area of stained region (fatty streak region) was determined with an image analyzer (LEICA, Q-600, Germany) and its proportion (%) to the total arterial area was calculated.
FIGS. 1A, 1B and 1C show the arteries of the rabbits administered with 1% cholesterol (Control group); 1% cholesterol plus 1 mg/kg Lovastatin® (Lovastatin® group); 1% cholesterol plus 0.1% ellagic acid, respectively.

Data set [2] concerns liver cells around the central vein. Briefly: fatty liver: proportion of abnormal fat-containing cells in the liver of rabbits. Format: in vivo, New Zealand White rabbits. Conditions: for A: Proportion of abnormal fat-containing liver cells (grade): 1% cholesterol diet plus 0.1% compound (Lovastatin 1 mg/kg), mean of grades 1+ to 4+, Control 3.2 ± 0.3; for microscopic features of the liver: FIGS. 2B and 2C, around the central vein. On the procedure:
as §1, §2
(Step 5) Prevention of Hepatic Diseases

Data set [3] is described as follows: chemical analysis of blood of rabbits fed a high-cholesterol diet. The format is in vivo, New Zealand White rabbits. The note with it: for TG (triglyceride): Control 56 ± 38; for TC (total cholesterol): Control 1143 ± 260. On the procedure: Effect of Tannin, Gallic acid or Ellagic acid in an Animal
(Step 1) Administration of tannin, gallic acid or ellagic acid to rabbits
as §1, §2
(Step 2) Chemical Analysis of Blood
After six weeks, the rabbits were anesthetized with an intramuscular injection of ketamine (50 mg/kg) in the femoral region and sacrificed. A blood sample was taken from the heart of each rabbit, allowed to stand for 2 hours and centrifuged at 3,000 rpm for 15 minutes and the supernatant serum was separated and stored in a freezer before use.
The chemical analysis of blood was carried out by employing a blood chemical analyzer (CIBA Corning 550 Express, USA) to determine the changes in GOT, GPT, γGTP, total cholesterol, HDL-cholesterol and triglyceride levels.

Data set [4] has as its system LDL receptor in the liver. The note with it: Farmer, J. A., et al. (1995), cited from earlier work; for plasma LDL cholesterol level: by enhancing the activity of LDL receptor in the liver.
Setting [5] is: rabbits, 1% cholesterol diet plus 0.1% compound (Lovastatin 1 mg/kg), 6 weeks.

In the case of `O=c1oc2c(O)c(O)cc3c(=O)oc4c(O)c(O)cc1c4c23` [Ellagic acid, ellagic acid], in data set [1] (6 weeks), the “Fatty streak (proportion of stained region to total arterial area)” value is on record as 9 ± 2%, the “plaque formation in the endothelium of the main artery” value is on record as “inhibit” and the “layer of macrophage-lipid complex on the arterial endothelium” value is reported as “no or very thin layers of macrophage-lipid complex”. The “deposition of macrophages on the arterial endothelium” value in data set [1] (blood cholesterol level high) was “strongly inhibit”. For the same molecule, in data set [2] (6 weeks), the “A: Proportion of abnormal fat-containing liver cells (grade)” value is 2.7. Also, in data set [2] (1% cholesterol diet, 6 weeks), the “inhibition of the formation of fatty liver” value is listed as “significantly inhibit the formation of fatty liver”. The “microscopic features of the liver” value in data set [2] was “almost all liver cells are of a normal shape”. In addition, the “effect on the liver function (adverse)” value in data set [3] (rabbit, in vivo) is “do not adversely affect on the liver function”. In data set [3] (setting [5]), the “TG (triglyceride)” value worked out at 25 ± 10 mg/dL and the “TC (total cholesterol)” value stood at 1000 ± 105 mg/dL. Also, the “lipid metabolism and liver function” value in data set [3] (rabbits, 6 weeks) is “can improve”.
As to `CC[C@H](C)C(=O)O[C@H]1C[C@@H](C)C=C2C=C[C@H](C)[C@H](CC[C@@H]3C[C@@H](O)CC(=O)O3)[C@H]21` [Lovastatin®, reference compound], in data set [1] (6 weeks), the “Fatty streak (proportion of stained region to total arterial area)” value amounted to 5% and the “layer of macrophage-lipid complex on the arterial endothelium” value was “no or very thin layers of macrophage-lipid complex”. In addition, in data set [4], the side effects entry was “increase in creatine kinase in the liver and rhabdomyolysis”; the “plasma LDL cholesterol level” value was “may reduce the plasma LDL cholesterol level”. For the same molecule, the “A: Proportion of abnormal fat-containing liver cells (grade)” value in data set [2] (6 weeks) is 3.4 ± 0.5. Also, the “microscopic features of the liver” value in data set [2] is given as “many cells containing excessive fat were observed around the central vein”. The γGTP in data set [3] (rabbits, 1% cholesterol diet plus 0.1% compound (Lovastatin 1 mg/kg), 6 weeks, Control 4.2 ± 0.9) is 12.4 ± 0.8 IU/l. In data set [3] (setting [5]), the “TG (triglyceride)” value worked out at 66 ± 17 mg/dL and the “TC (total cholesterol)” value turned out to be 1210 ± 263 mg/dL. The GPT in data set [3] (rabbits, 1% cholesterol diet plus 0.1% compound (Lovastatin 1 mg/kg), 6 weeks, Control 65 ± 9) worked out at 73 ± 9 IU/l. The GOT in data set [3] (rabbits, 1% cholesterol diet plus 0.1% compound (Lovastatin 1 mg/kg), 6 weeks, Control 77 ± 8) was found to be 125 ± 19 IU/l.
As for `CCC(C)(C)C(=O)O[C@H]1C[C@@H](C)C=C2C=C[C@H](C)[C@H](CC[C@@H]3C[C@@H](O)CC(=O)O3)[C@H]21` [Simvastatin®], in data set [4], the “plasma LDL cholesterol level” value was “may reduce the plasma LDL cholesterol level”.

(Values after patent US6133311A, “Method for preventing or treating elevated blood lipid level-related diseases by administering natural phenolic compounds” (priority 1998, dated 2000).)
